Measured values reported in article PMC6314990 (Forensic Toxicology, 2018).

Assays:
[1] = system: pentobarbital-induced sleep in mice; assay: Cannabinoid-induced potentiation of pentobarbital-induced sleep and effect of CB1 receptor antagonists; type: in vivo, ddY mice; settings: for Prolongation of pentobarbital-induced sleep compared with vehicle-pretreated group (Veh + Veh): cannabinoid 10 mg/kg i.v., pentobarbital 40 mg/kg i.p. 15 min later, male ddY mice, n = 8
Procedure: For the pharmacological studies, cannabinoids and antagonists were suspended in saline containing 1% Tween 80. Sodium pentobarbital was dissolved in saline and injected intraperitoneally (i.p.; 40 mg/kg) for the mice. Male ddY mice weighing 20–25 g were housed in groups of 8. All animals were kept in a temperature-controlled (25 °C) environment with a 12-h light–dark cycle (lights on at 7:00 a.m.) and received food and water ad libitum. […] One percent Tween 80-saline solution was injected instead of cannabinoids or antagonists for the vehicle treated group as a control.

[2] = biological target: CB1 receptor (Mus musculus, UniProt P47746)
Chain of CB1 receptor (P47746 whole entry): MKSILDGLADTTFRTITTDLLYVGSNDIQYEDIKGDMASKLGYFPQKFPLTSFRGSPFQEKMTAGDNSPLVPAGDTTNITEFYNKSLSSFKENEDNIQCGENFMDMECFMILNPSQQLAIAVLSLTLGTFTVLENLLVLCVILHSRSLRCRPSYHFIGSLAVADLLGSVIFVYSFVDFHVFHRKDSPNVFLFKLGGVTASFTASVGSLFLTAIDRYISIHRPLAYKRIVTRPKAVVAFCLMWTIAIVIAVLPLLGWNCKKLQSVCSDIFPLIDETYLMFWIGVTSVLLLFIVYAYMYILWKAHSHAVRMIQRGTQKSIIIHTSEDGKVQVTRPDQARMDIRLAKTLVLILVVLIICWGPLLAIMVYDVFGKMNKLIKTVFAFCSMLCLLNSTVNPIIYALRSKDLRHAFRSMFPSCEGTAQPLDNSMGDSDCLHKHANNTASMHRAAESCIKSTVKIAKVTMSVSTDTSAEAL
Procedure: Crude synaptic membranes from ddY male mice brains were prepared according to the method of Zukin et al. [32] with a slight modification. Briefly, whole mice brains were homogenized in 15 volumes of ice-cold 0.32 M sucrose for 1 min with a Polytron homogenizer (Kinematica, Lucerne, Switzerland), followed by centrifugation at 1000 g for 10 min at 4 °C. The pellet was discarded and the supernatant was centrifuged at 20000g for 20 min at 4 °C. This pellet was homogenized for 15 s in 40 volumes of ice-cold distilled water and further dispersed with a Polytron homogenizer. The suspension was then centrifuged at 8000g for 20 min at 4 °C. The supernatant and the soft buffy upper layer of the pellet were carefully collected and combined. This fraction was then centrifuged at 48000g for 20 min at 4 °C.
A ligand binding assay for the cannabinoid receptor was performed according to the method of Devane et al. [34] and Compton et al. [16]. […] The filters were then placed in glass scintillation vials with 10 ml of Clearsol and the radioactivity was counted using a liquid scintillation counter (LSC-6100, Aloka, Tokyo, Japan). […] The inhibitory constant (Ki value) was calculated according to the method of Speth et al. [35].

Cc1c(C(=O)NN2CCCCC2)nn(-c2ccc(Cl)cc2Cl)c1-c1ccc(I)cc1 [AM251, N-(piperidin-1-yl)-5-(4-iodophenyl)-1-(2,4-dichlorophenyl)-4-methyl-1H-pyrazole-3-carboxamide]
Effect of antagonist on potentiating effect of ∆9-THC on pentobarbital-induced sleep, low dose ([1]; antagonist 2 mg/kg i.v., ∆9-THC 10 mg/kg i.v., pentobarbital 40 mg/kg i.p., mice): attenuated | Effect of antagonist pretreatment on potentiation of pentobarbital-induced sleep by ∆9-THC ([1]; antagonist 2–10 mg/kg i.v. 10 min before ∆9-THC 10 mg/kg i.v., pentobarbital 40 mg/kg i.p., mice): decreased dose-dependently | Effect of antagonist alone (antagonist + Veh) on pentobarbital-induced sleeping time ([1]; without ∆9-THC, pentobarbital 40 mg/kg i.p., mice): no change in pentobarbital-induced sleeping time

C=C(C)[C@@H]1CCC(C)=C[C@H]1c1c(O)cc(CCCCC)cc1O [CBD, cannabidiol]
Prolongation of pentobarbital-induced sleep compared with vehicle-pretreated group (Veh + Veh) [1]: 1.8 fold

CCCC(C)C1(CC)C(=O)NC(=O)NC1=O (stereo not shown) [Pentobarbital, sodium pentobarbital]
Specific [3H]CP55940 binding ([2]; pentobarbital 1 mM added to the reaction mixture, control 0.055 ± 0.002, N.S. vs control): 0.050 ± 0.003 ^N.S. pmol/mg protein | Effect on specific [3H]CP55940 binding ([2]; pentobarbital 1 mM, mouse brain synaptic membrane): did not affect specific [^3H]CP55940 binding

CCCCCc1cc(O)c2c(c1)OC(C)(C)[C@@H]1CCC(C)=CC21 (stereo partly shown) [∆^9-THC, ∆^9-tetrahydrocannabinol]
Prolongation of pentobarbital-induced sleep compared with vehicle-pretreated group (Veh + Veh) [1]: 3.3 fold
